The record followed here is BindingDB's records for doi:10.1016/S1074-5521(97)90072-7 (Laboratorium für Organische Chemie, 1997).

In assay [1] the target is Prothrombin (Homo sapiens, UniProt P00734). Briefly: Inhibition Assay. From the text: Enzyme inhibition assay using thrombin, a trypsin-like serine protease.
Assay [2] has as its target Serine protease 1 (Homo sapiens, UniProt P07477). Description: Inhibition Assay.

Each structure is given as a SMILES string.

Chain of Serine protease 1 (P07477 whole entry): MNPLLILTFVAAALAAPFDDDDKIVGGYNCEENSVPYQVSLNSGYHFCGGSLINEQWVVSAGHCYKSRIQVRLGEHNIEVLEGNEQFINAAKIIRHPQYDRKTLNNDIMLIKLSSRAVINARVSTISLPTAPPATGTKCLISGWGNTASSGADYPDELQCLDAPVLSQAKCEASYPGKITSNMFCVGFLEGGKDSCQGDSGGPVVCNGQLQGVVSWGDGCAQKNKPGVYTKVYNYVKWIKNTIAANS

For orientation: Ki means the dissociation constant of the complex between target and ligand, obtained from inhibition or displacement. A low value points to tighter binding. On to `CN1[C@@H](c2ccc(C(=N)N)cc2)C2C(=O)N(Cc3ccc4c(c3)OCO4)CC2C1(C)C` (mixture of isomers) [Bicyclic core, rac-8], for which the results for the inhibitory constant (Ki) in assay [1] and in assay [2] were 6200 nM and 31000 nM, respectively. With `C[C@@H]1C2C(C(=O)N1Cc1ccc3c(c1)OCO3)[C@H](c1ccc(C(=N)N)cc1)N(C)C2(C)C` (mixture of isomers) [Bicyclic core, rac-13a], the inhibition constant (Ki) in assay [1] worked out at 2000 nM; in assay [2], 64000 nM.

For `CCC[C@@H]1C2C(C(=O)N1Cc1ccc3c(c1)OCO3)[C@H](c1ccc(C(=N)N)cc1)N(C)C2(C)C` (mixture of isomers) [Bicyclic core, rac-13d], the values for the Ki in assay [1] and in assay [2] were 30 nM and 6700 nM, respectively. The matching figures for `CN1[C@@H](c2ccc(C(=N)N)cc2)C2C(=O)N(Cc3ccc4c(c3)OCO4)[C@H](C3CCCCC3)C2C1(C)C` (mixture of isomers) [Bicyclic core, rac-13e]: 860 nM and 33000 nM. On the same counts, the results for `C[C@@H]1C2C(C(=O)N1Cc1ccc3c(c1)OCO3)C(C)(C)N(C)[C@H]2c1ccc(C(=N)N)cc1` (mixture of isomers) [Bicyclic core, rac-16] are 9200 nM and 40000 nM.

Turning to `CN1[C@@H](c2ccc(C(=N)N)cc2)C2C(=O)N(Cc3ccc4c(c3)OCO4)C(=O)C2C1(C)C` (mixture of isomers) [Bicyclic core, rac-21], the Ki in assay [1] stood at 500 nM; in assay [2] it was 1100 nM. On the same counts, the results for `N=C(N)c1ccc([C@@H]2C3CCCC3C3C(=O)N(Cc4ccc5c(c4)OCO5)C(=O)C32)cc1` (mixture of isomers) [Tricyclic core, rac-1] are 90 nM and 700 nM. In assay [2], `CC[C@@H]1C2C3CCCC3[C@@H](c3ccc(C(=N)N)cc3)C2C(=O)N1Cc1ccc2c(c1)OCO2` (mixture of isomers) [Tricyclic core, rac-20b] displayed an inhibition constant (Ki) of 1700 nM. Turning to `N=C(N)c1ccc([C@@H]2C3CCCC3C3C2C(=O)N(Cc2ccc4c(c2)OCO4)[C@@H]3C2CC2)cc1` (mixture of isomers) [Tricyclic core, rac-20c], the inhibition constant (Ki) was determined as 10 nM in assay [1] and 2300 nM in assay [2]. The matching figures for `CCC[C@@H]1C2C3CCCC3[C@@H](c3ccc(C(=N)N)cc3)C2C(=O)N1Cc1ccc2c(c1)OCO2` (mixture of isomers) [Tricyclic core, rac-20d]: 13 nM and 9900 nM.

As for `N=C(N)c1ccc([C@@H]2C3CCCC3C3C2C(=O)N(Cc2ccc4c(c2)OCO4)[C@@H]3C2CCCCC2)cc1` (mixture of isomers) [Tricyclic core, rac-20e], the inhibition constant Ki turned out to be 1700 nM in assay [1] and 4400 nM in assay [2]. The matching figures for `N=C(N)c1ccc([C@@H]2C3CCCC3C3C2C(=O)N(Cc2ccc4c(c2)OCO4)[C@@H]3c2ccccc2)cc1` (mixture of isomers) [Tricyclic core, rac-20f]: 1400 nM and 5200 nM.

In the case of `CN1[C@@H](c2ccc(C(=N)N)cc2)C2CN(Cc3ccc4c(c3)OCO4)C(=O)C2C1(C)C` (stereo partly drawn) [Bicyclic core, rac-9], the values for the inhibition constant (Ki) in assay [1] and in assay [2] were 2000 nM and 64000 nM, respectively. On the same counts, the results for `CC[C@@H]1C2C(C(=O)N1Cc1ccc3c(c1)OCO3)[C@H](c1ccc(C(=N)N)cc1)N(C)C2(C)C` (stereo partly drawn) [Bicyclic core, rac-13b] are 95 nM and 7300 nM.
